Here are results for three compounds from patent publication US20170119776A1, “CHIRAL 2,5-DISUBSTITUTED CYCLOPENTANECARBOXYLIC ACID DERIVATIVES AND USE THEREOF” (BAYER PHARMA AKTIENGESELLSCHAFT, priority 2014, published 2017).

The IC50 is the concentration at which inhibition is half-maximal. Read a high IC50 as weaker potency.

For this assay, the target named is T1, human macrophage elastase (HME/hMMP-12) (Homo sapiens, UniProt P39900).
T1 construct: 0.5 nM HME; purchased R&D Systems 917-MP
T1 sequence (P39900 106-470): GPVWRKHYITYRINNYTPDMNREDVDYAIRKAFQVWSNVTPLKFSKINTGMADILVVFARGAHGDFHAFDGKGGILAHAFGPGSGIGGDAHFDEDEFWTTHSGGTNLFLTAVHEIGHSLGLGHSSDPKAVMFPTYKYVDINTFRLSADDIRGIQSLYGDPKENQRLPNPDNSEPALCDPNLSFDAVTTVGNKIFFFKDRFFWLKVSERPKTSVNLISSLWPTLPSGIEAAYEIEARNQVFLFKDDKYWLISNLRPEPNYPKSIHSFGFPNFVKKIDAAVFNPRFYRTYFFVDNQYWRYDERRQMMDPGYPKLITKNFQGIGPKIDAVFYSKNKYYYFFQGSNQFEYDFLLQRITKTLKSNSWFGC
In words: In vitro HME inhibition test (standard / high-sensitivity), without BSA. The class given is biochemical. The conditions noted are these: absence of serum albumin (BSA). The text has this: The activity of the compounds according to the invention towards HME (MMP-12) is ascertained in an in vitro inhibition test. The HME-mediated amidolytic cleavage of a suitable peptide substrate leads herein to a fluorescent light increase. The signal intensity of the fluorescent light is directly proportional to the enzyme activity. The active concentration of a test compound at which half of the enzyme is inhibited (50% signal intensity of the fluorescent light) is given as IC50 value.
In a 384 hole microtiter plate, in a test volume of in total 41 μl of the test buffer (0.1 M HEPES pH 7.4, 0.15 M NaCl, 0.03 M CaCl2, 0.004 mM ZnCl2, […], 0.005% Brij®), the enzyme (0.5 nM HME; R&D Systems, 917-MP, autocatalytic activation according to the manufacturer's instructions) and the intramolecularly quenched substrate [5 μM Mca-Pro-Leu-Gly-Leu-Glu-Glu-Ala-Dap(Dnp)-NH2; Bachem, M-2670] are incubated in the absence and presence of the test substance (as solution in DMSO) for two hours at 37° C. The fluorescent light intensity of the test batches is measured (excitation 323 nm, emission 393 nm). The IC50 values are ascertained by plotting the fluorescent light intensity against the active ingredient concentration.
If subnanomolar IC values are produced for high potent test substances in the standard HME inhibition test described above, then a modified test is used for their more precise determination. Here, a ten-fold lower enzyme concentration is used (final concentration e.g. 0.05 nM), in order to achieve an increased sensitivity of the test. The incubation time of the test is accordingly chosen to be longer (e.g. 16 hours).
Table 1 below gives the IC50 values from these HME inhibition tests for the working examples of the present invention and also for two structurally related comparison compounds from the prior art (as racemate or separated enantiomers)→(sometimes as average values from several independent individual determinations and rounded to two significant places). The IC50 values were determined for racemates and enantiomers from differently generated DMSO stock solutions. Whereas an automatically created DMSO stock solution from the internal substance logistics was used for racemates by means of a standard method, for enantiomers and for a more precise direct comparison of the enantiomers with one another, in each case a freshly produced, manually prepared DMSO stock solution was used.
The compound `O=C(O)[C@@H]1[C@@H](Cn2nnc3ccccc3c2=O)CC[C@H]1C(=O)c1ccc(-c2ccc(Cl)cc2)cc1` (single isomer, unassigned; enantiomer 1) [Comparative Example A-2, (1RS,2RS,5SR)-2-[(4′-chlorobiphenyl-4-yl)carbonyl]-5-[(4-oxo-1,2,3-benzotriazin-3(4H)-yl)methyl]cyclopentanecarboxylic acid (enantiomer 1)] yielded an IC50 of 66 nM.

For `CCCCCOc1ccc(C(=O)CC(CCn2nnc3ccccc3c2=O)C(=O)O)cc1` (single isomer, unassigned; enantiomer 2) [Comparative Example B-3, (−)-4-Oxo-2-[2-(4-oxo-1,2,3-benzotriazin-3(4H)-yl)ethyl]-4-[4-(pentyloxy)phenyl]butanoic acid (enantiomer 2)], the IC50 was 160 nM.

With `O=C(O)[C@@H]1[C@@H](Cn2nnc3ccccc3c2=O)CC[C@H]1C(=O)c1ccc(OCc2ccccc2)cc1` [Example 3, (−)-(1R,2R,5S)-2-[4-(Benzyloxy)benzoyl]-5-[(4-oxo-1,2,3-benzotriazin-3(4H)-yl)methyl]cyclopentanecarboxylic acid], the 50% inhibitory concentration (IC50) was 14 nM. This IC50 is about 11-fold lower than that of the compound before.
